Data on one molecule can be found in patent publication US6969583B2, “Method for detecting variant HBV” (Melbourne Health, priority 2000, dated 2005).

Each structure is given as a SMILES string. Read-outs that look alike come from different tables or passages of the source.

What all share (format): cell-based, Hepatitis B virus
In assay [1] the test system is wild-type HBV baculovirus. Briefly: Antiviral testing with wild-type HBV baculovirus in HepG2 cells (Example 15, Southern blot densitometry). On the procedure: (§1) HepG2 cells were seeded at approximately 20-40% confluency and then were grown for 16-24 hours before infection. On the day of infection, triplicate plates of cells were trypsinized, and viable cell number was determined with a hemocytometer using Trypan blue exclusion. Average cell counts were calculated and used to determine the volume of high-titer viral stock necessary to infect cells at the indicated moi. HepG2 cells were washed one time with serum-free MEM to remove traces of serum. Baculovirus was diluted into MEM without serum to achieve the appropriate moi using volumes of 1.0, 0.5, and 0.25 ml to infect 100-mm, 60 mm, and 35-mm dishes, respectively. Baculovirus was adsorbed to HepG2 cells for one hour at 37° C. with gentle rocking every 15 minutes to ensure that the inoculum was evenly distributed. The inoculum was then aspirated and HepG2 cells were washed two times with phosphate-buffered saline and refed MEM-FBS with or without various concentrations of agents.
(§2) HBV core particles were isolated from the cytoplasmic fraction of HepG2 cells lysed in 0.5% w/v NP-40. Cytoplasmic extracts were adjusted to 10 mmol/l McC12 and unprotected DNA was removed by an incubation to […] for 1.5 hours at 37° C. Following sequential phenol and chloroform extractions, nucleic acids were recovered by ethanol precipitation. Nucleic acids were resuspended in 50 μl/l TE (10 mmol/l Tris, 1 mmol/l ethylenedianinetetraacetic acid), normalized by OD260, and digested with 100 μg/ml RNase (Boehringer Mannheim, Indianapolis, Ind.) for one hour at 37° C. before analysis by electrophoresis and Southern blotting. A BioRad GS-670 imaging densitometer and the Molecular Analyst software (BioRad, Hecules Calif.) was used to analyze suitable exposures of Southern blots. Densitometry data was fitted to logistic dose response curves using the TableCurve2D software package from Jandel Scientific. Logistic dose response equations were used to calculate IC50 and IC90 values and co-efficients of variation.
(§3) 3TC and PCV were a gift from Klaus Esser, SmithKline Beecham, Collegeville, Pa. PMEA was obtained from Gilead (Foster City, Calif.). 3TC was resuspended in sterile water, aliquoted, and frozen at −20° C. to avoid repeated freezing and thawing of the drug. PMEA was resuspended in sterile water after the pH was adjusted to 7.0 with NaOH. PCV was resuspended in dimethyl sulphoxide. Medium containing 3TC was prepared daily as needed using fresh aliquots of 3TC. In experiments in which 3TC treatment was initiated after viral infection, HepG2 cells were exposed to the indicated concentration of 3TC immediately after infection with HBV baculovirus. In experiments utilizing pretreatment with 3TC, cells were fed medium containing 3TC 16 hours prior to HBV baculovirus infection, HBV baculovirus infection was also carried out in medium containing 3TC, and cells were refed fresh medium containing 3TC immediately after completion of the infection and washing procedures. Treatment with PMEA and PCV were conducted in a similar manner.
The dose effect of 3TC and PMEA, on wild-type HBV is shown graphically in FIG. 6 (A, B,) and a Southern Blot of intracellular HBV replicative intermediates and extracellular virus produced by HepG2 cells transduced with wild-type HBV-baculovirus in the presence of increasing concentrations of PCV is shown in FIG. 6C and the IC50 for each antiviral agent is shown in Table 2.

In assay [2] the test system is L526M HBV baculovirus. Kind of assay: Antiviral testing with L526M HBV baculovirus in HepG2 cells (Example 15). On the procedure:
as §1, §2, §3

The test system of assay [3] is precore (G1896A) recombinant HBV-baculovirus. Kind of assay: Antiviral testing of the precore mutant (G1896A) HBV baculovirus in HepG2 cells (Example 17). As to the method: as §1, §2
Conditioned medium was collected from HepG2 cells and subjected to centrifugation at 6,000 g for five minutes to remove cellular debris. HBV particles were precipitated with 10% w/v PEG 8000 and were concentrated by centrifugation at 12,000 ×g. Viral pellets were resuspended us 1 ml of MEM-FBS and divided into two aliquots. One set of aliquots was treated with 750 μg/ml Pronase for one hour and then with […] DNase 1 for one hour. Both sets of aliquots were then digested with Proteinase K, and extracted with phenol and chloroform. DNA was precipitated with 0.1 volume of 3 mol/l sodium acetate and 1 volume of isopropanol. Ten micrograms of transfer RNA was added as a carrier during precipitation. Pellets were resuspended in 25 μl of TE and digested with 0.5 mg/ml RNase for one hour. DNA was then analyzed by electrophoresis and Southern blotting.
as §3

For orientation: inhibition means the drop in the measured response relative to a control, in per cent. As usually defined, the IC50 is the concentration at which inhibition is half-maximal. As for `Nc1ncnc2c1ncn2CCOCP(=O)(O)O` [Adefovir, 9-(2-phosphonylmethoxyethyl)adenine], the inhibition at 1 µM is 91.6% in assay [1] (Hepatitis B virus, HepG2, wt HBV, ds HBV DNA band density vs untreated controls, estimated from fitted curve, negative = stimulation of replication) and 86.2% in assay [2] (Hepatitis B virus, HepG2, 526 (L526M) HBV, ds HBV DNA band density vs untreated controls, estimated from fitted curve, negative = stimulation, read-out: Inhibition at 1 μM). The IC50 in assay [1] (Hepatitis B virus, wt HBV, ds HBV DNA bands, HepG2 cells) was found to be 80 nM; in assay [2] (Hepatitis B virus, 526 (L526M) HBV, ds HBV DNA bands, HepG2 cells, read-out: IC50) it was 90 nM; in assay [3] (Hepatitis B virus, HepG2, Precore (G1896A), extracellular relaxed circular HBV DNA, averages where footnoted, read-out: IC50 (μM), EC RC), 0.025 µM; in assay [3] (Hepatitis B virus, HepG2, Precore (G1896A), extracellular relaxed circular HBV DNA, individual experiments behind the average, read-out: IC50, single experiments, EC RC), 0.02 µM; in assay [3] (Hepatitis B virus, HepG2, Precore (G1896A), intracellular single-stranded HBV DNA, averages where footnoted, read-out: IC50 (μM), IC SS), 0.195 µM; in assay [3] (Hepatitis B virus, HepG2, Precore (G1896A), intracellular single-stranded HBV DNA, individual experiments behind the average, read-out: IC50, single experiments, IC SS), 0.2 µM. Moreover, the IC50 in assay [3] (Precore (G1896A), extracellular relaxed circular HBV DNA, individual experiments behind the average, read-out: IC50, single experiments, EC RC) was 0.03 µM; in assay [3] (Precore (G1896A), intracellular single-stranded HBV DNA, individual experiments behind the average, read-out: IC50, single experiments, IC SS), 0.19 µM. The “Resistance Factor” value in assay [1] ({}) and in assay [2] ({}) was 1 in each case. For the same molecule, the “change in sensitivity of L526M compared to wild-type” value in assay [2] (FIG. 7A-7C, result in words) is recorded as “No significant change”. Further, the “sensitivity of G1896A HBV compared with wild type HBV” value in assay [3] (result in words) is on record as “at least as sensitive”.
